Measurements: PMC7586456 (ACS Pharmacology & Translational Science, 2020)
pEC50: −log10 of the molar value. Like-named read-outs stand apart in the source and are kept apart here.

How the values were obtained:
SARS-S PP [1] = type: cell-based, SARS-CoV
VSV-G PP [2] = type: cell-based, Vesicular stomatitis virus
MERS-S PP [3] = type: cell-based, MERS-CoV
VSV-G PP [4] = test: microbe, parasite or virus in culture; type: cell-based, Vesicular stomatitis virus; conditions: for pEC50: Vesicular stomatitis virus, Huh-7, read-out: VSV-G PP in Huh7 EC50
Vero E6 cells [5] = tested on: Vero E6 cells
Huh7 cells = conditions: human
[6] = tested on: SARS CoV-2 (USA_WA1/2020)
Vero E6 cells [7] = tested on: Vero E6 cells; remark: listed apart in the source
[8] = tested on: SARS CoV-2 (USA_WA1/2020); conditions: cited from earlier work
in vitro = conditions: human
SARS-S PP [9] = type: cell-based, SARS-CoV; remark: listed apart in the source
MERS-S PP [10] = type: cell-based, MERS-CoV; remark: listed apart in the source

Molecule	SARS-S PP in Vero E6 efficacy (SARS-S PP [1]) [%]	VSV-G PP in Vero E6 efficacy (VSV-G PP [2]) [%]	MERS-S PP in Huh7 efficacy (MERS-S PP [3]) [%]	VSV-G PP in Huh7 efficacy (VSV-G PP [4]) [%]	pEC50 (VSV-G PP [4])	Vero E6 cytotoxicity cytotox (Vero E6 cells [5]; African green monkey)	Huh7 cytotoxicity cytotox (Huh7 cells) [%]	Vero E6 cytotoxicity cytotox (SARS-CoV-2 CPE counter screen) (Vero E6 cells [7]; African green monkey) [%]	CC50 (in vitro) [µM]	safety ratio (CC50 of Vero E6 CPE counter screen divided by EC50 of SARS-CoV-2 CPE assay) ([6]; African green monkey)	also measured
COc1ccc2cc1Oc1ccc(cc1)C[C@H]1c3c(cc4c(c3Oc3cc5c(cc3OC)CCN(C)[C@@H]5C2)OCO4)CCN1C [cepharanthine]	90.9	76.9	108.4	115.3	4.62	106.2%	88.9	99.0	38.3		SARS-CoV-2 CPE efficacy [6]: 92.5%; block of SARS-CoV-2 induced CPE in Vero E6 cells (in words) [8]: able to block SARS-CoV-2 induced CPE in Vero E6 cells, only when added during the viral entry time period, and not the postentry period
C=CC(=O)Nc1cc(Nc2nccc(-c3cn(C)c4ccccc34)n2)c(OC)cc1N(C)CCN(C)C [osimertinib]	117.5	118.4				99.6%		99.7		2.5	selectivity ratio (EC50 of VSV-G PP entry divided by SARS-S PP entry EC50) (SARS-S PP [1]): 15.8
CN(C)CCCN1c2ccccc2CCc2ccc(Cl)cc21 [clomipramine]											activity against SARS-S PP entry in the primary screen (in words) (SARS-S PP [1]): active against SARS-S PP entry; cytotoxicity in the primary screen (in words) (Vero E6 cells [5]): noncytotoxic; protection against SARS-CoV-2 CPE (in words) [8]: protect against SARS-CoV-2 CPE
CC1=C[C@]23C(=O)[C@@H](C=C(CO)[C@@H](O)[C@]2(O)[C@H]1O)[C@H]1[C@@H](C[C@H]3C)C1(C)C [ingenol]	93.3	76.4				–4.0%		0.0		355.7	selectivity ratio (EC50 of VSV-G PP entry divided by SARS-S PP entry EC50) (SARS-S PP [1]): 12.0; activity in MERS-S PP entry in Huh7 cells (in words) (MERS-S PP [3]): not in MERS-S entry in Huh7 cells
COc1c(OCCCN2CCOCC2)ccc2c1N=C(NC(=O)c1cnc(N)nc1)N1CCN=C21 [copanlisib]			65.8	6.2	< 4.24		13.6	42.4	> 57.5		SARS-CoV-2 CPE efficacy [6]: 0.0%
colforsin [NKH477]	71.4	0									pEC50 (SARS-S PP [1]; read-out: SARS-S PP in Vero E6 EC50): 5.87; pEC50 (VSV-G PP [2]; read-out: VSV-G PP in Vero E6 EC50): < 4.24; activity in MERS-S PP entry in Huh7 cells (in words) (MERS-S PP [3]): not in MERS-S entry in Huh7 cells; CC50 (Vero E6 cells [5]): > 57.5 µM; Vero E6 cytotoxicity cytotox (Vero E6 cells [5]): 0%; safety ratio (CC50 of Vero E6 CPE counter screen divided by EC50 of SARS-CoV-2 CPE assay) [6]: 1.1; pEC50 ([6]; read-out: SARS-CoV-2 CPE EC50): 4.64; CC50 (Vero E6 cells [7]): 25.2 µM; Vero E6 cytotoxicity cytotox (SARS-CoV-2 CPE counter screen) (Vero E6 cells [7]): 42.0%
CC(CN(C)C)CN1c2ccccc2CCc2ccccc21 (stereo not drawn) [trimipramine]	90.9	29.2				16.6%		16.6		1.0	entry inhibition activity in Calu-3 cells (in words) (SARS-S PP [9]): not confirmed
CCN1CCN(Cc2ccc(Nc3ncc(F)c(-c4cc(F)c5nc(C)n(C(C)C)c5c4)n3)nc2)CC1 [abemaciclib]			82.3	27.1	< 4.24		90.0	34.0	17.1	6.3	selectivity toward SARS-S-based entry compared with VSV-G in Calu-3 cells (SARS-S PP [9]): > 10 fold; selectivity toward MERS-S-based entry compared with VSV-G in Calu-3 cells (MERS-S PP [10]): > 10 fold
